What was measured:
[1] = stability of the crystalline physical form; format: physicochemical; settings: solid crystalline form
[2] = stability in the presence of water / as aqueous suspension; format: physicochemical
Procedure: Form 5 ZD1839 trihydrate is a stable form of the compound of Formula I In particular, Form 5 ZD1839 trihydrate is very stable in the presence of water. For example, when Form 5 ZD1839 trihydrate is prepared as an aqueous suspension the resulting suspension is stable, whereas aqueous suspensions prepared using other forms of the compound of Formula I are prone to convert to Form 5 ZD1839 trihydrate during storage. In the case of aqueous suspensions of the compound of Formula I this can be problematic because the conversion of a less thermodynamically stable form to the Form 5 ZD1839 trihydrate can result in the growth of large crystals of the Form 5 ZD1839 trihydrate, thereby altering the particle size distribution in the suspension. […] Furthermore, if a variable mixture of two such forms of the compound of Formula I were to be present, the dissolution rate and bioavailability of the active compound(s) could be variable as a result of the different characteristics of the two forms.

| stability of crystalline physical form [1] | stability in the presence of water ([2]; in the presence of water) | stability of aqueous suspension ([2]; prepared as an aqueous suspension, during storage) | SMILES |
| --- | --- | --- | --- |
| very stable | – | – | COc1cc2ncnc(Nc3ccc(F)c(Cl)c3)c2cc1OCCCN1CCOCC1 [Form 3 ZD1839 DMSO solvate, 4-(3′-chloro-4′-fluoroanilino)-7-methoxy-6-(3-morpholinopropoxy)quinazoline mono-solvate with dimethyl sulphoxide] |
| – | very stable | stable | COc1cc2ncnc(Nc3ccc(F)c(Cl)c3)c2cc1OCCCN1CCOCC1 [Form 5 ZD1839 trihydrate, 4-(3′-chloro-4′-fluoroanilino)-7-methoxy-6-(3-morpholinopropoxy)quinazoline trihydrate] |
| of sufficient stability | – | – | COc1cc2ncnc(Nc3ccc(F)c(Cl)c3)c2cc1OCCCN1CCOCC1 [Form 2 ZD1839 MeOH solvate, 4-(3′-chloro-4′-fluoroanilino)-7-methoxy-6-(3-morpholinopropoxy)quinazoline hemi-methanolate] |
| highly stable | – | – | COc1cc2ncnc(Nc3ccc(F)c(Cl)c3)c2cc1OCCCN1CCOCC1 [Form 1 ZD1839 polymorph, 4-(3′-chloro-4′-fluoroanilino)-7-methoxy-6-(3-morpholinopropoxy)quinazoline] |
